Assay results published in ChEMBL document CHEMBL3885861, “Open TG-GATES”.

Species: Rattus norvegicus
Test: Open TG-GATES - Regimen: Single
Format: toxicity, organism-based, Sprague-Dawley
Parameters: regimen Single, gender Male, age 6 weeks
Settings: in vivo, po, route gavage; for gamma-GTP / ALT / AST / BUN / CRE / Ca / Cl / DBIL / GLC / IP / K / LDH / Na / PL / RALB / TBIL / TC / TP: tissue Plasma; for Bas / Eos / Fbg / Hb / Ht / Lym / MCHC / MCV / Mono / Neu / Plat / RBC / Ret / WBC: tissue Blood; for KIDNEY_TOTAL: tissue Kidney; for LIVER: tissue Liver
[1] = 50 mg/kg, 24 h, dose level High

C[C@@H]1C[C@H]2[C@@H]3CCC4=CC(=O)C=C[C@]4(C)[C@@]3(F)[C@@H](O)C[C@]2(C)[C@@]1(O)C(=O)CO [DEXAMETHASONE]
gamma-GTP (5 mg/kg, 24 h, dose level Middle): 0 IU/L
TERMINAL_BW (50 mg/kg, 3 h, dose level High): 214.6 g
Bas (50 mg/kg, 3 h, dose level High): 0%
Eos (50 mg/kg, 3 h, dose level High): 0.8%
Fbg (50 mg/kg, 3 h, dose level High): 244.4 mg/dL
Hb (50 mg/kg, 3 h, dose level High): 13.1 g/dL
Ht (50 mg/kg, 3 h, dose level High): 40.1%
Lym (50 mg/kg, 3 h, dose level High): 58%
MCHC (50 mg/kg, 3 h, dose level High): 32.5%
MCV (50 mg/kg, 3 h, dose level High): 63.1 fL
Mono (50 mg/kg, 3 h, dose level High): 2.8%
Neu (50 mg/kg, 3 h, dose level High): 38.8%
Plat (50 mg/kg, 3 h, dose level High): 125.2 x10_4/uL
RBC (50 mg/kg, 3 h, dose level High): 635.6 x10_4/ul
Ret (50 mg/kg, 3 h, dose level High): 7.4%
WBC (50 mg/kg, 3 h, dose level High): 35.1 x10_2/uL
KIDNEY_TOTAL (50 mg/kg, 3 h, dose level High): 0.6 g
LIVER (50 mg/kg, 3 h, dose level High): 10.7 g
ALT (50 mg/kg, 3 h, dose level High): 40.4 IU/L
AST (50 mg/kg, 3 h, dose level High): 75.2 IU/L
BUN (50 mg/kg, 3 h, dose level High): 15.6 mg/dL
CRE (50 mg/kg, 3 h, dose level High): 0.4 mg/dL
Ca (50 mg/kg, 3 h, dose level High): 11.3 mg/dL
Cl (50 mg/kg, 3 h, dose level High): 103.2 meq/L
DBIL (50 mg/kg, 3 h, dose level High): 0.012 mg/dL
GLC (50 mg/kg, 3 h, dose level High): 198.8 mg/dL
IP (50 mg/kg, 3 h, dose level High): 11.5 mg/dL
K (50 mg/kg, 3 h, dose level High): 3.9 meq/L
LDH (50 mg/kg, 3 h, dose level High): 85.4 IU/L
Na (50 mg/kg, 3 h, dose level High): 142 meq/L
PL (50 mg/kg, 3 h, dose level High): 152.8 mg/dL
RALB (50 mg/kg, 3 h, dose level High): 4.3 g/dL
TBIL (50 mg/kg, 3 h, dose level High): 0.04 mg/dL
TC (50 mg/kg, 3 h, dose level High): 91 mg/dL
TP (50 mg/kg, 3 h, dose level High): 6.1 g/dL
gamma-GTP (50 mg/kg, 3 h, dose level High): 1 IU/L
TERMINAL_BW (50 mg/kg, 6 h, dose level High): 208.4 g
Bas (50 mg/kg, 6 h, dose level High): 0%
Eos (50 mg/kg, 6 h, dose level High): 0%
Fbg (50 mg/kg, 6 h, dose level High): 244.4 mg/dL
Hb (50 mg/kg, 6 h, dose level High): 13.3 g/dL
Ht (50 mg/kg, 6 h, dose level High): 40.4%
Lym (50 mg/kg, 6 h, dose level High): 61.8%
MCHC (50 mg/kg, 6 h, dose level High): 32.9%
MCV (50 mg/kg, 6 h, dose level High): 63.8 fL
Mono (50 mg/kg, 6 h, dose level High): 3.4%
Neu (50 mg/kg, 6 h, dose level High): 34.4%
Plat (50 mg/kg, 6 h, dose level High): 119.3 x10_4/uL
RBC (50 mg/kg, 6 h, dose level High): 634 x10_4/ul
Ret (50 mg/kg, 6 h, dose level High): 7.1%
WBC (50 mg/kg, 6 h, dose level High): 26.8 x10_2/uL
KIDNEY_TOTAL (50 mg/kg, 6 h, dose level High): 0.5 g
LIVER (50 mg/kg, 6 h, dose level High): 10.5 g
ALT (50 mg/kg, 6 h, dose level High): 40.8 IU/L
AST (50 mg/kg, 6 h, dose level High): 83 IU/L
BUN (50 mg/kg, 6 h, dose level High): 16.2 mg/dL
CRE (50 mg/kg, 6 h, dose level High): 0.4 mg/dL
Ca (50 mg/kg, 6 h, dose level High): 11.4 mg/dL
Cl (50 mg/kg, 6 h, dose level High): 104.6 meq/L
DBIL (50 mg/kg, 6 h, dose level High): 0.01 mg/dL
GLC (50 mg/kg, 6 h, dose level High): 215.2 mg/dL
IP (50 mg/kg, 6 h, dose level High): 8.1 mg/dL
K (50 mg/kg, 6 h, dose level High): 4.1 meq/L
LDH (50 mg/kg, 6 h, dose level High): 80.6 IU/L
Na (50 mg/kg, 6 h, dose level High): 140.2 meq/L
PL (50 mg/kg, 6 h, dose level High): 157.6 mg/dL
RALB (50 mg/kg, 6 h, dose level High): 4.6 g/dL
TBIL (50 mg/kg, 6 h, dose level High): 0.036 mg/dL
TC (50 mg/kg, 6 h, dose level High): 106.4 mg/dL
TP (50 mg/kg, 6 h, dose level High): 6.5 g/dL
gamma-GTP (50 mg/kg, 6 h, dose level High): 0 IU/L
TERMINAL_BW (50 mg/kg, 9 h, dose level High): 200.5 g
Bas (50 mg/kg, 9 h, dose level High): 0%
Eos (50 mg/kg, 9 h, dose level High): 0%
Fbg (50 mg/kg, 9 h, dose level High): 244.6 mg/dL
Hb (50 mg/kg, 9 h, dose level High): 13.5 g/dL
Ht (50 mg/kg, 9 h, dose level High): 41%
Lym (50 mg/kg, 9 h, dose level High): 42.8%
MCHC (50 mg/kg, 9 h, dose level High): 32.9%
MCV (50 mg/kg, 9 h, dose level High): 64.5 fL
Mono (50 mg/kg, 9 h, dose level High): 2%
Neu (50 mg/kg, 9 h, dose level High): 55.2%
Plat (50 mg/kg, 9 h, dose level High): 121.9 x10_4/uL
RBC (50 mg/kg, 9 h, dose level High): 636.2 x10_4/ul
Ret (50 mg/kg, 9 h, dose level High): 5.4%
WBC (50 mg/kg, 9 h, dose level High): 15.4 x10_2/uL
KIDNEY_TOTAL (50 mg/kg, 9 h, dose level High): 0.5 g
LIVER (50 mg/kg, 9 h, dose level High): 10.8 g
ALT (50 mg/kg, 9 h, dose level High): 39 IU/L
AST (50 mg/kg, 9 h, dose level High): 78.2 IU/L
BUN (50 mg/kg, 9 h, dose level High): 18.2 mg/dL
CRE (50 mg/kg, 9 h, dose level High): 0.4 mg/dL
Ca (50 mg/kg, 9 h, dose level High): 10.6 mg/dL
Cl (50 mg/kg, 9 h, dose level High): 103.2 meq/L
DBIL (50 mg/kg, 9 h, dose level High): 0.01 mg/dL
GLC (50 mg/kg, 9 h, dose level High): 238.8 mg/dL
IP (50 mg/kg, 9 h, dose level High): 6.6 mg/dL
K (50 mg/kg, 9 h, dose level High): 4.2 meq/L
LDH (50 mg/kg, 9 h, dose level High): 83.4 IU/L
Na (50 mg/kg, 9 h, dose level High): 138 meq/L
PL (50 mg/kg, 9 h, dose level High): 177.6 mg/dL
RALB (50 mg/kg, 9 h, dose level High): 4.6 g/dL
TBIL (50 mg/kg, 9 h, dose level High): 0.032 mg/dL
TC (50 mg/kg, 9 h, dose level High): 105.6 mg/dL
TP (50 mg/kg, 9 h, dose level High): 6.5 g/dL
gamma-GTP (50 mg/kg, 9 h, dose level High): 0.8 IU/L
TERMINAL_BW [1]: 218.5 g
Bas [1]: 0%
Eos [1]: 1.2%
Fbg [1]: 231 mg/dL
Hb [1]: 13.8 g/dL
Ht [1]: 42.2%
Lym [1]: 13.8%
MCHC [1]: 32.8%
MCV [1]: 63.1 fL
Mono [1]: 7.2%
Neu [1]: 78.4%
Plat [1]: 129.6 x10_4/uL
RBC [1]: 667.6 x10_4/ul
Ret [1]: 4.6%
WBC [1]: 26.2 x10_2/uL
KIDNEY_TOTAL [1]: 0.3 g
LIVER [1]: 14.3 g
ALT [1]: 52.8 IU/L
AST [1]: 102.2 IU/L
BUN [1]: 19.2 mg/dL
CRE [1]: 0.5 mg/dL
Ca [1]: 11.2 mg/dL
Cl [1]: 99.8 meq/L
DBIL [1]: 0.018 mg/dL
GLC [1]: 273.2 mg/dL
IP [1]: 6.7 mg/dL
K [1]: 4.6 meq/L
Na [1]: 138.8 meq/L
PL [1]: 260.8 mg/dL
RALB [1]: 4.6 g/dL
TBIL [1]: 0.042 mg/dL
TC [1]: 120.4 mg/dL
TP [1]: 6.5 g/dL
gamma-GTP [1]: 0.4 IU/L
